Data taken from ChEMBL document CHEMBL1201862, “PubChem BioAssay data set” (2004).
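Values below derive from 48-hour exposures of cells grown in 96-well plates, with endpoints linearly interpolated between the two concentrations bracketing the appropriate inhibition level. At the GI50, growth is halved.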 Activity calls are given as the source filed them. No stated cut-off is given here; in the data, active = GI50 up to about 1.1 µM and inactive = higher.

Key:
Assay in all cases: NCI tumour cell line growth inhibition, 48 h
HCC 2998 = test system: HCC 2998
OVCAR-4 = test system: OVCAR-4
786-0 = test system: 786-0
MOLT-4 = test system: MOLT-4
SK-MEL-2 = test system: SK-MEL-2
EKVX = test system: EKVX
NCI-H460 = test system: NCI-H460
LOX IMVI = test system: LOX IMVI
OVCAR-5 = test system: OVCAR-5
SW-620 = test system: SW-620
SNB-19 = test system: SNB-19
NCI/ADR-RES = test system: NCI/ADR-RES
M14 = test system: M14
RPMI-8226 = test system: RPMI-8226
SK-OV-3 = test system: SK-OV-3
COLO 205 = test system: COLO 205
HCT-15 = test system: HCT-15
HT-29 = test system: HT-29
UACC-257 = test system: UACC-257
CCRF-CEM = test system: CCRF-CEM

SMILES | GI50 (HCC 2998) | GI50 (OVCAR-4) | GI50 (786-0) | GI50 (MOLT-4) | GI50 (SK-MEL-2) | GI50 (EKVX) | GI50 (NCI-H460) | GI50 (LOX IMVI) | GI50 (OVCAR-5) | GI50 (SW-620) | GI50 (SNB-19) | GI50 (NCI/ADR-RES) | GI50 (M14) | GI50 (RPMI-8226) | GI50 (SK-OV-3) | GI50 (COLO 205) | GI50 (HCT-15) [µM] | GI50 (HT-29) | GI50 (UACC-257) | GI50 (CCRF-CEM)
O=C(O)C(CCc1ccccn1)c1ccccc1 (stereo not drawn) | > 100 µM (inactive) | > 100 µM (inactive) | > 100 µM (inactive) | > 100 µM (inactive) | > 100 µM (inactive) | > 100 µM (inactive) | > 100 µM (inactive) | > 100 µM (inactive) | > 100 µM (inactive) | > 100 µM (inactive) | > 100 µM (inactive) | > 100 µM (inactive) | > 100 µM (inactive) | > 100 µM (inactive) | > 100 µM (inactive) | > 100 µM (inactive) | > 100 | > 100 µM (inactive) | > 100 µM (inactive) | –
Cc1ccc(C)c(C(=N)c2ccccc2Cc2ccccc2)c1 | 15.9 µM (inactive) | 19.4 µM (inactive) | 17 µM (inactive) | 15.1 µM (inactive) | 15.3 µM (inactive) | 19 µM (inactive) | 14.7 µM (inactive) | 17.3 µM (inactive) | 25.9 µM (inactive) | 31.2 µM (inactive) | 42.6 µM (inactive) | 25.4 µM (inactive) | 24.2 µM (inactive) | 12.3 µM (inactive) | 26.8 µM (inactive) | 26.9 µM (inactive) | 24.7 | 12.9 µM (inactive) | 22.9 µM (inactive) | –
N#Cc1ccccc1NC(=O)C(O)C(O)C(O)C(O)C=O (stereo not drawn) | > 100 µM (inactive) | > 100 µM (inactive) | > 100 µM (inactive) | > 100 µM (inactive) | > 100 µM (inactive) | > 100 µM (inactive) | > 100 µM (inactive) | > 100 µM (inactive) | > 100 µM (inactive) | > 100 µM (inactive) | > 100 µM (inactive) | > 100 µM (inactive) | > 100 µM (inactive) | – | > 100 µM (inactive) | > 100 µM (inactive) | > 100 | > 100 µM (inactive) | > 100 µM (inactive) | > 100 µM (inactive)
O=S1(=O)N=C(SCc2ccccc2)N(c2ccccc2)c2ccncc21 | 38.7 µM (inactive) | 23.3 µM (inactive) | 40.8 µM (inactive) | 17.7 µM (inactive) | 34.3 µM (inactive) | 24.4 µM (inactive) | 28.8 µM (inactive) | 53.7 µM (inactive) | > 100 µM (inactive) | 56 µM (inactive) | 99.8 µM (inactive) | 21.7 µM (inactive) | 36.3 µM (inactive) | – | 38.8 µM (inactive) | 19.7 µM (inactive) | 26.5 | 43.9 µM (inactive) | 31.3 µM (inactive) | 28.5 µM (inactive)
CCOC(=O)CCC(C(=O)OCC)n1nnc2ccc(Nc3c(C)[n+]([O-])c4cc(F)c(OCC)cc4[n+]3[O-])cc21 (stereo not drawn) | – | 36.4 µM (inactive) | > 100 µM (inactive) | 44.7 µM (inactive) | 32.3 µM (inactive) | 44.7 µM (inactive) | 60.3 µM (inactive) | 32.7 µM (inactive) | > 100 µM (inactive) | > 100 µM (inactive) | > 100 µM (inactive) | 87.7 µM (inactive) | 62.4 µM (inactive) | 21.5 µM (inactive) | > 100 µM (inactive) | 28.2 µM (inactive) | 52.8 | 56.8 µM (inactive) | 21.2 µM (inactive) | 40 µM (inactive)
CSC(SC)=C1CC(=O)Nc2ccccc2C1=O | > 100 µM (inactive) | > 100 µM (inactive) | 45.6 µM (inactive) | 26.1 µM (inactive) | 53.3 µM (inactive) | > 100 µM (inactive) | > 100 µM (inactive) | 17.4 µM (inactive) | > 100 µM (inactive) | – | > 100 µM (inactive) | > 100 µM (inactive) | 80.2 µM (inactive) | – | > 100 µM (inactive) | 58.2 µM (inactive) | 36.1 | > 100 µM (inactive) | 23.6 µM (inactive) | 19.7 µM (inactive)
Cc1cc(-c2ccc(C(=O)O)[nH]2)on1 | 55 µM (inactive) | > 100 µM (inactive) | 51.4 µM (inactive) | > 100 µM (inactive) | 88.5 µM (inactive) | 42.1 µM (inactive) | 40.6 µM (inactive) | – | 74.1 µM (inactive) | 30.1 µM (inactive) | 61.4 µM (inactive) | 24.9 µM (inactive) | 52 µM (inactive) | 62.7 µM (inactive) | 32.6 µM (inactive) | 22.3 µM (inactive) | 20.2 | 27.1 µM (inactive) | > 100 µM (inactive) | –
C=CCNc1ccc(C)cc1 | > 100 µM (inactive) | > 100 µM (inactive) | – | > 100 µM (inactive) | – | – | > 100 µM (inactive) | > 100 µM (inactive) | – | > 100 µM (inactive) | > 100 µM (inactive) | > 100 µM (inactive) | > 100 µM (inactive) | – | – | > 100 µM (inactive) | > 100 | > 100 µM (inactive) | > 100 µM (inactive) | > 100 µM (inactive)
C[n+]1c2ccccc2c(C(=O)Nc2ccc(S(=O)(=O)N=C(N)N)cc2)c2ccccc21 | > 100 µM (inactive) | > 100 µM (inactive) | > 100 µM (inactive) | 25.5 µM (inactive) | > 100 µM (inactive) | > 100 µM (inactive) | > 100 µM (inactive) | 75.3 µM (inactive) | > 100 µM (inactive) | > 100 µM (inactive) | > 100 µM (inactive) | > 100 µM (inactive) | > 100 µM (inactive) | > 100 µM (inactive) | > 100 µM (inactive) | > 100 µM (inactive) | > 100 | > 100 µM (inactive) | > 100 µM (inactive) | –
CCOC(=O)C1(C(=O)OCC)COS(=O)OC1 | 47.6 µM (inactive) | 20.7 µM (inactive) | – | 16.4 µM (inactive) | – | – | 21.3 µM (inactive) | 13.2 µM (inactive) | – | 18.6 µM (inactive) | > 100 µM (inactive) | 40 µM (inactive) | > 100 µM (inactive) | – | > 100 µM (inactive) | 23.8 µM (inactive) | 19.2 | > 100 µM (inactive) | > 100 µM (inactive) | 10.6 µM (inactive)
COc1ccc2[nH]c3c(C)c4cc[n+](C)cc4c(C)c3c2c1 | 3.15 µM (inactive) | 3.37 µM (inactive) | – | – | 3.85 µM (inactive) | 1.16 µM (inactive) | 1.64 µM (inactive) | 10.2 µM (inactive) | 9.51 µM (inactive) | 1.11 µM (active) | 0.273 µM (active) | 22 µM (inactive) | – | – | 6.78 µM (inactive) | – | – | 4.83 µM (inactive) | 12.1 µM (inactive) | 1.72 µM (inactive)
CC1(C)CCC2=C(O1)c1ccccc1/C(=N/c1ccc([N+](=O)[O-])cc1)C2=O | 17.7 µM (inactive) | 15.1 µM (inactive) | 20 µM (inactive) | 13.8 µM (inactive) | 16.1 µM (inactive) | 16.4 µM (inactive) | 15.5 µM (inactive) | – | – | 16.1 µM (inactive) | 18.5 µM (inactive) | 21.2 µM (inactive) | 8.24 µM (inactive) | – | 17.7 µM (inactive) | – | 31 | 12.7 µM (inactive) | 16.5 µM (inactive) | –
